From patent US8334235B2, “Thiadiazolyloxyphenylamidines and use thereof as fungicides” (Bayer Cropscience AG, priority 2008, dated 2012)

Assays:
log P (pH 2.3) = format: physicochemical
Puccinia triticina [1] = assay: Puccinia triticina test (wheat)/curative; format: in vivo; conditions: 192 h, 500 ppm active substance, curative, evaluation 8 days after inoculation, read-out: degree of effectiveness
Method: (§1) • Solvent: 50 parts by weight of N,N-dimethylacetamide • Emulsifier: 1 part by weight of alkylaryl polyglycol ether (polyoxyethylene (16) tristearylphenyl ether)
(§2) To prepare a suitable active substance composition, 1 part by weight of active substance is mixed with the given amounts of solvent and emulsifier and the concentrate is diluted to the desired concentration using water.
For the testing of curative effectiveness, young plants are sprayed with a suspension of spores of Puccinia triticina. The plants remain in an incubation chamber at 20° C. and 100% relative humidity for 48 hours and are then sprayed with the active substance composition in the application rate given. The plants are placed in a greenhouse at a temperature of approximately 20° C. and a relative humidity of approximately 80%.
(§3) Evaluation is carried out 8 days after the inoculation. In this connection, 0% means a degree of effectiveness corresponding to that of the control, while a degree of effectiveness of 100% means that no infestation is observed.

Alternaria solani = assay: Alternaria test (tomato)/protective; format: in vivo; conditions: 72 h, 100 ppm active substance, protective, evaluation 3 days after inoculation, read-out: degree of effectiveness
Method: (§4) • Solvents: 24.5 parts by weight of acetone • 24.5 parts by weight of dimethylacetamide • Emulsifier: 1 part by weight of alkylaryl polyglycol ether (polyoxyethylene (16) tristearylphenyl ether)
To prepare a suitable active substance composition, 1 part by weight of substance is mixed with the given amounts of solvents and emulsifier and the concentrate is diluted to the desired concentration using water.
For the testing of protective effectiveness, young plants are sprayed with the active substance composition in the application rate given. After the spray coating has been dried on, the plants are inoculated with an aqueous suspension of spores of Alternaria solani. The plants are then placed in an incubation chamber at approximately 20° C. and 100% relative humidity.
Evaluation is carried out 3 days after the inoculation. In this connection, 0% means a degree of effectiveness corresponding to that of the control, while a degree of effectiveness of 100% means that no infestation is observed.

Puccinia triticina [2] = assay: Puccinia triticina test (wheat)/protective; format: in vivo; conditions: 192 h, 500 ppm active substance, protective, evaluation 8 days after inoculation, read-out: degree of effectiveness
Method: as §1, §2
For the testing of protective effectiveness, young plants are sprayed with the active substance composition in the application rate given. After the spray coating has been dried on, the plants are sprayed with a suspension of spores of Puccinia triticina. The plants remain in an incubation chamber at 20° C. and 100% relative humidity for 48 hours. The plants are placed in a greenhouse at a temperature of approximately 20° C. and a relative humidity of approximately 80%.
as §3

[3] = test system: bean rust pathogen Uromyces appendiculatus; assay: Uromyces test (beans)/protective; format: in vivo; conditions: 240 h, 100 ppm active substance, protective, evaluation 10 days after inoculation, read-out: degree of effectiveness
Method: as §4
To prepare a suitable active substance composition, 1 part by weight of active substance is mixed with the given amounts of solvents and emulsifier and the concentrate is diluted to the desired concentration using water.
For the testing of protective effectiveness, young plants are sprayed with the active substance composition in the application rate given. After the spray coating has been dried on, the plants are inoculated with an aqueous suspension of the spores of the bean rust pathogen Uromyces appendiculatus and then remain in an incubation chamber at approximately 20° C. and 100% relative humidity for 1 day.
The plants are then placed in a greenhouse at approximately 21° C. and a relative humidity of approximately 90%.
Evaluation is carried out 10 days after the inoculation. In this connection, 0% means a degree of effectiveness corresponding to that of the control, while a degree of effectiveness of 100% means that no infestation is observed.

Sphaerotheca fuliginea = assay: Sphaerotheca test (cucumber)/protective; format: in vivo; conditions: Podosphaera fuliginea, 168 h, 500 ppm active substance, protective, evaluation 7 days after inoculation, read-out: degree of effectiveness
Method: • Solvent: 49 parts by weight of N,N-dimethylformamide • Emulsifier: 1 part by weight of alkylaryl polyglycol ether (polyoxyethylene (16) tristearylphenyl ether) To prepare a suitable active substance composition, 1 part by weight of active substance is mixed with the given amounts of solvents and emulsifier and the concentrate is diluted to the desired concentration using water. For the testing of protective effectiveness, young cucumber plants are sprayed with the active substance composition in the application rate given. One day after treatment, the plants are inoculated with a suspension of spores of Sphaerotheca fuliginea. The plants are then placed in a greenhouse at 70% relative humidity and a temperature of 23° C. Evaluation is carried out 7 days after the inoculation. In this connection, 0% means a degree of effectiveness corresponding to that of the control, while a degree of effectiveness of 100% means that no infestation is observed.

SMILES | logP (log P (pH 2.3)) | pest or weed control at 500 ppm (Puccinia triticina [1]) [%] | pest or weed control at 100 ppm (Alternaria solani) [%] | pest or weed control at 500 ppm (Puccinia triticina [2]) [%] | pest or weed control at 100 ppm [3] [%] | pest or weed control at 500 ppm (Sphaerotheca fuliginea) [%]
Cc1cc(N)c(Cl)cc1Oc1nc(CCc2ccc(Cl)cc2)ns1 [2-Chloro-4-({3-[2-(4-chlorophenyl)ethyl]-1,2,4-thiadiazol-5-yl}oxy)-5-methylaniline] | 4.5 |  |  |  |  | 
Cc1cc(N)c(Cl)cc1Oc1nc(C2(Cl)CC2)ns1 [2-Chloro-4-{[3-(1-chlorocyclopropyl)-1,2,4-thiadiazol-5-yl]oxy}-5-methylaniline] | 3.5 |  |  |  |  | 
Cc1ccc(S(=O)(=O)c2nc(C3(Cl)CC3)ns2)cc1 [3-(1-Chlorocyclopropyl)-5-{(4-methylphenyl)sulphonyl}-1,2,4-thiadiazole] | 3.67 |  |  |  |  | 
Cc1ccc(S(=O)(=O)c2nc(CCc3ccc(Cl)cc3)ns2)cc1 [3-[2-(4-Chlorophenyl)ethyl]-5-[(4-methylphenyl)sulphonyl]-1,2,4-thiadiazole] | 4.62 |  |  |  |  | 
O=c1oc(CCc2ccc(Cl)cc2)ns1 [5-[2-(4-Chlorophenyl)ethyl]-1,3,4-oxathiazol-2-one] | 3.36 |  |  |  |  | 
CCN(C)/C=N/c1cc(C)c(Oc2nc(C(C)(C)C)ns2)cc1Cl [Compound 1, N′-{4-[(3-(tert-butyl)-1,2,4-thiadiazol-5-yl)oxy]-2-chloro-5-methylphenyl}-N-ethyl-N-methylimidoformamide] |  | ≥ 70 | ≥ 70 | ≥ 70 | ≥ 70 | ≥ 70
CCN(C)/C=N/c1cc(C)c(Oc2nc(C(C)(C)C)ns2)cc1Br [Compound 2, N′-{2-bromo-4-[(3-(tert-butyl)-1,2,4-thiadiazol-5-yl)oxy]-5-methylphenyl}-N-ethyl-N-methylimidoformamide] |  | ≥ 70 | ≥ 70 | ≥ 70 | ≥ 70 | ≥ 70
CCN(C)/C=N/c1cc(C)c(Oc2nc(C(C)c3ccc(Cl)cc3)ns2)cc1Cl (stereo not shown) [Compound 6] |  | ≥ 70 |  | ≥ 70 | ≥ 70 | ≥ 70
Cc1cc(N=CN(C)C(C)C)c(Cl)cc1Oc1nc(C(C)c2ccc(Cl)cc2)ns1 (stereo not shown) [Compound 8, N′-[2-chloro-4-({3-[1-(4-chlorophenyl)ethyl]-1,2,4-thiadiazol-5-yl}oxy)-5-methylphenyl]-N-methyl-N-(propan-2-yl)imidoformamide] |  |  |  |  | ≥ 70 | ≥ 70
Cc1cc(/N=C\N2CCCCC2)c(Cl)cc1Oc1nc(CCc2ccc(Cl)cc2)ns1 [Compound 10, 2-chloro-4-({3-[2-(4-chlorophenyl)ethyl]-1,2,4-thiadiazol-5-yl}oxy)-5-methyl-N-[(Z)-piperidin-1-ylmethylidene]aniline] | 2.64 |  |  |  |  | 
CCN(C)/C=N/c1cc(C)c(Oc2nc(Cc3ccccc3)ns2)cc1Cl [Compound 14, N′-{4-[(3-benzyl-1,2,4-thiadiazol-5-yl)oxy]-2-chloro-5-methylphenyl}-N-ethyl-N-methylimidoformamide] |  | ≥ 70 | ≥ 70 | ≥ 70 | ≥ 70 | ≥ 70
CCN(C)C=Nc1cc(C)c(Oc2nc(/C=C/c3ccc(F)cc3)ns2)cc1Cl [Compound 15, N′-[2-chloro-4-({3-[(E)-2-(4-fluorophenyl)ethenyl]-1,2,4-thiadiazol-5-yl}oxy)-5-methylphenyl]-N-ethyl-N-methylimidoformamide] |  | ≥ 70 | ≥ 70 | ≥ 70 | ≥ 70 | ≥ 70
CCN(C)C=Nc1cc(C)c(Oc2nc(C3(c4ccc(Cl)cc4)CC3)ns2)cc1Cl [Compound 17, N′-[2-chloro-4-({3-[1-(4-chlorophenyl)cyclopropyl]-1,2,4-thiadiazol-5-yl}oxy)-5-methylphenyl]-N-ethyl-N-methylimidoformamide] |  | ≥ 70 | ≥ 70 | ≥ 70 | ≥ 70 | ≥ 70
CCN(C)/C=N/c1cc(C)c(Oc2nc(Cc3ccc(Cl)cc3)ns2)cc1Cl [Compound 18, N′-(2-chloro-4-{[3-(4-chlorobenzyl)-1,2,4-thiadiazol-5-yl]oxy}-5-methylphenyl)-N-ethyl-N-methylimidoformamide] |  | ≥ 70 |  | ≥ 70 | ≥ 70 | ≥ 70
CCCN(C)/C=N/c1cc(C)c(Oc2nc(C(C)(C)C)ns2)cc1Cl [Compound 24, N′-{4-[(3-(tert-butyl)-1,2,4-thiadiazol-5-yl)oxy]-2-chloro-5-methylphenyl}-N-methyl-N-propylimidoformamide] |  | ≥ 70 | ≥ 70 | ≥ 70 |  | ≥ 70
CCN(C)C=Nc1cc(C)c(Oc2nc(C3(C)CC3(Cl)Cl)ns2)cc1Cl (stereo not shown) [Compound 32, N′-(2-chloro-4-{[3-(2,2-dichloro-1-methylcyclopropyl)-1,2,4-thiadiazol-5-yl]oxy}-5-methylphenyl)-N-ethyl-N-methylimidoformamide] |  | ≥ 70 | ≥ 70 | ≥ 70 | ≥ 70 | ≥ 70
CCN(C)/C=N/c1cc(C)c(Oc2nc(Cc3ccc(Br)cc3)ns2)cc1Cl [Compound 33, N′-(4-{[3-(4-bromobenzyl)-1,2,4-thiadiazol-5-yl]oxy}-2-chloro-5-methylphenyl)-N-ethyl-N-methylimidoformamide] |  | ≥ 70 | ≥ 70 | ≥ 70 |  | ≥ 70
CCN(C)/C=N/c1cc(C)c(Oc2nc(Cc3ccc(Cl)cc3Cl)ns2)cc1Cl [Compound 38, N′-(2-chloro-4-{[3-(2,4-dichlorobenzyl)-1,2,4-thiadiazol-5-yl]oxy}-5-methylphenyl)-N-ethyl-N-methylimidoformamide] |  | ≥ 70 |  | ≥ 70 | ≥ 70 | ≥ 70
CCN(C)/C=N/c1cc(C)c(Oc2nc(C(C)(C)CCl)ns2)cc1Cl [Compound 39, N′-(2-chloro-4-{[3-(1-chloro-2-methylpropan-2-yl)-1,2,4-thiadiazol-5-yl]oxy}-5-methylphenyl)-N-ethyl-N-methylimidoformamide] |  | ≥ 70 | ≥ 70 | ≥ 70 | ≥ 70 | ≥ 70
CCN(C)/C=N/c1cc(C)c(Oc2nc(Cc3ccc(F)cc3F)ns2)cc1Cl [Compound 40, N′-(2-chloro-4-{[3-(2,4-difluorobenzyl)-1,2,4-thiadiazol-5-yl]oxy}-5-methylphenyl)-N-ethyl-N-methylimidoformamide] |  | ≥ 70 | ≥ 70 | ≥ 70 |  | ≥ 70
